From patent US11905286B2, “Diazabicyclooctanones as inhibitors of serine beta-lactamases” (priority 2018, dated 2024)
≈ marks a conversion by molar mass, not a printed value. Where a name gives a salt, the structure may show the parent alone. Read-outs that look alike come from different tables or passages of the source.

Tests used:
KPC-2 = KPC-2 (Klebsiella pneumoniae, UniProt Q9F663); assay: In vitro enzyme inhibition assay (nitrocefin hydrolysis), KPC-2; type: biochemical
Description: (§1) Compound dilution was performed in DMSO.

[1] = tested on: NTBC091.1 (E. coli strain expressing KPC-2, TEM-1); assay: Meropenem potentiation, broth micro-dilution MIC, strain NTBC091.1; type: cell-based; details: for MIC mero + 4 μg/mL inhibitor (banded): NTBC091.1, MIC of meropenem with 4 μg/mL of the labelled inhibitor, band; for MIC of meropenem + compound compared with meropenem + avibactam: NTBC091.1
Description: (§4) The experiments were carried out using the ‘broth micro-dilution method’ according to the protocols M07-A8 established by the Clinical Laboratory Standards Institute (CLSI). […] After incubation for 18-20 hours in a heating chamber at 37° C., the growth inhibition was evaluated by the absence of any bacterial development.
(§5) Compounds of the invention were tested at concentrations of 4 μg/mL.

TEM-1 = TEM-1 (Escherichia coli, UniProt P62593); assay: In vitro enzyme inhibition assay (nitrocefin hydrolysis), TEM-1; type: biochemical; details: nitrocefin 100 μM, band; read-out: TEM-1 mean IC50 (banded)
TEM-1, sequence (P62593 24-286 limits assumed): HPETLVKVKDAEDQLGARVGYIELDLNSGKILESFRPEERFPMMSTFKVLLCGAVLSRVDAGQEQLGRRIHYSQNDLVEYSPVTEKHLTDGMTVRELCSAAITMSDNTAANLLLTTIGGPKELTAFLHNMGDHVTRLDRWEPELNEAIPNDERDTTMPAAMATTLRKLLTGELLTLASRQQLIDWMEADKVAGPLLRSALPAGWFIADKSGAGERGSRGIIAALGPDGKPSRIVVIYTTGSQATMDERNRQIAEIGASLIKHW
Description: as §1

AmpC [2] = target: T1, AmpC (Enterobacter cloacae, UniProt P05364); assay: biochemical
T1 sequence (P05364 21-381): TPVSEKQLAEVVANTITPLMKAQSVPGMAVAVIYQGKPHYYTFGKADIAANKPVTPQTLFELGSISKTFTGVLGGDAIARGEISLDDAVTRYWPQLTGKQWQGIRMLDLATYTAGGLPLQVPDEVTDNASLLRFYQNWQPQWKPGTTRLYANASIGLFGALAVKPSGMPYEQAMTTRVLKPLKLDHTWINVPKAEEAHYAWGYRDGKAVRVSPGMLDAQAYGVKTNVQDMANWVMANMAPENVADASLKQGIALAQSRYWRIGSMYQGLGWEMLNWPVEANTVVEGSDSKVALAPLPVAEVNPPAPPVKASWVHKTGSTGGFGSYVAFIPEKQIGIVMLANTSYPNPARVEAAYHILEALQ

OXA-48 = OXA-48 (Klebsiella pneumoniae, UniProt Q6XEC0); assay: In vitro enzyme inhibition assay (nitrocefin hydrolysis), OXA-48; type: biochemical
OXA-48, sequence (Q6XEC0 23-265 limits assumed): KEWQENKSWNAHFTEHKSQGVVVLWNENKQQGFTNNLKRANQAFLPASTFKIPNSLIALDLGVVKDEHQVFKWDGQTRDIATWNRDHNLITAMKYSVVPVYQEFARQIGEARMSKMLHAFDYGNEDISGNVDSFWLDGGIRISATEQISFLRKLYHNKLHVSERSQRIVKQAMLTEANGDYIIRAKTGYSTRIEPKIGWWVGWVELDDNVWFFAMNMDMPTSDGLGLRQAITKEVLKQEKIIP
Description: as §1

CTX-M15 = CTX-M15 (Escherichia coli, UniProt Q9EXV5); assay: In vitro enzyme inhibition assay (nitrocefin hydrolysis), CTX-M15; type: biochemical
CTX-M15, sequence (Q9EXV5 entry or part of it): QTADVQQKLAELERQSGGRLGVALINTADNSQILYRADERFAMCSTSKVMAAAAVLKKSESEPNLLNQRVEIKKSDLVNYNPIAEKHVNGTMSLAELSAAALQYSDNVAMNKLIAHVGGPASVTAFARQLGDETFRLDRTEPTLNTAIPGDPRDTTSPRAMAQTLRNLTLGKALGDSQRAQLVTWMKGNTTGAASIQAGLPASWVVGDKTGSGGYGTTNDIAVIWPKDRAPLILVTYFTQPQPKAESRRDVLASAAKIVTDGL
Description: as §1

[3] = tested on: OXA-expressing clinical strain of Klebsiella pneumoniae (AC00783); assay: MIC against strain used in thigh model, AC00783; type: cell-based
Text: (§2) Compounds of the invention were further examined in animal efficacy models.

[4] = tested on: panel of 48 A. baumannii strains (OXA positive clinical isolates); assay: Cumulative MIC, panel of 48 A. baumannii strains (FIG. 3)
[5] = tested on: NTBC189 (K. pneumoniae strain expressing TEM-OSBL(b), CTX-M-14, OXA-48(c)); assay: Meropenem potentiation, broth micro-dilution MIC, strain NTBC189
Description: as §4, §5

[6] = tested on: NTBC093 (E. cloacae strain expressing KPC-2, TEM-1); assay: Meropenem potentiation, broth micro-dilution MIC, strain NTBC093
Description: as §4, §5

[7] = tested on: larger panel of clinical strains of OXA positive enterobacteriaceae; assay: Cumulative MIC, larger panel of clinical strains of OXA positive enterobacteriaceae (FIG. 1B); details: meropenem + 4 μg/mL inhibitor
[8] = tested on: KPC-expressing clinical strain of Klebsiella pneumoniae (NR-48977); assay: Mouse thigh infection efficacy model, NR-48977; type: in vivo; details: mice, IV at 1, 3, 5 and 7 hours post infection with constant dose of meropenem, 9 hours post infection
Description: as §2
(§3) Vehicle, meropenem alone or meropenem and a compound of the invention (Example 10) were administered by IV at 1, 3, 5 and 7 hours post infection. 9 hours post infection animals were sacrificed and the number of colony forming units (CFUs) was measured in order to quantify bacterial burden (colony forming units per gram thigh tissue, CFU/g).

[9] = tested on: NTBC096.1 (K. pneumoniae strain expressing OXA-181 and SHV-11); assay: Meropenem potentiation, broth micro-dilution MIC, strain NTBC096.1; type: cell-based
Description: as §4, §5

[10] = tested on: OXA-expressing clinical strain of Acinetobacter baumannii (AC00445); assay: Mouse thigh infection efficacy model, AC00445; type: in vivo; details: mice, IV at 1, 3, 5 and 7 hours post infection with constant dose of meropenem, 9 hours post infection
Description: as §2, §3

[11] = tested on: clinical strains of KPC positive enterobacteriaceae; details: FIG. 2, meropenem + 4 μg/mL inhibitor
[12] = tested on: OXA-expressing clinical strain of Acinetobacter baumannii (AC00445); assay: MIC against strain used in thigh model, AC00445; type: cell-based
Text: as §2

[13] = tested on: KPC-expressing clinical strain of Klebsiella pneumoniae (NR-48977); assay: MIC against strain used in thigh model, NR-48977; type: cell-based
Text: as §2

[14] = tested on: OXA-expressing clinical strain of Klebsiella pneumoniae (AC00783); assay: Mouse thigh infection efficacy model, AC00783; type: in vivo; details: mice, IV at 1, 3, 5 and 7 hours post infection with constant dose of meropenem, 9 hours post infection
Description: as §2, §3

AmpC [15] = target: T1, AmpC; details: read-out: Amp-C mean IC50 (banded); nitrocefin 100 μM, band
[16] = tested on: clinical strains of OXA positive enterobacteriaceae; assay: Cumulative MIC, panel of clinical strains of OXA positive enterobacteriaceae (FIG. 1A); details: antibiotic alone or clinical combination
[17] = Klebsiella pneumoniae, read-out: MIC mero + 4 μg/mL inhibitor

KPC-2, sequence (Q9F663 25-293 limits assumed): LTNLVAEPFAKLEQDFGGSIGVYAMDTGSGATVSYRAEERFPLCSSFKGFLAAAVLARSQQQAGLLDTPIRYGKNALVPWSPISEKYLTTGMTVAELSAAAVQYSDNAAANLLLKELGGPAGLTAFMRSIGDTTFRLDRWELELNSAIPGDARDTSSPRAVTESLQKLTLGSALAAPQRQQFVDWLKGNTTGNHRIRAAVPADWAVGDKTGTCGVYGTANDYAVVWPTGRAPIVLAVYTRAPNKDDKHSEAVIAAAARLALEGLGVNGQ

| SMILES | IC50 (KPC-2) [nM] | MIC mero + 4 μg/mL inhibitor (banded) [1] | IC50 (AmpC [2]) [nM] | IC50 (OXA-48) [nM] | IC50 (CTX-M15) [nM] | further results |
| --- | --- | --- | --- | --- | --- | --- |
| O=C1N2C[C@@H](CC[C@@H]2F)N1OS(=O)(=O)[O-].[Na+] [Example 11, Sodium (2S, 5R)-2-fluoro-7-oxo-1,6-diazabicyclo [3.2.1]octan-6-yl sulfate] | > 10 | (A) (1 μg/mL) | > 60 | > 300 | – | IC50 (TEM-1): > 10 nM |
| O=C1N2C[C@@H](CC[C@H]2CF)N1OS(=O)(=O)[O-].[Na+] [Example 4, Sodium (2S, 5R)-2-(fluoromethyl)-7-oxo-1,6-diazabicyclo[3.2.1]octan-6-yl sulphate] | > 10 | (A) (1 μg/mL) | < 10 | 200 to 300 | 5 to 20 | – |
| O=C1N2C[C@@H](CC[C@H]2C(Cl)Cl)N1OS(=O)(=O)O [Example 3, Sodium (2S,5R)-2-(dichloromethyl)-7-oxo-1,6-diazabicyclo[3.2.1]octan-6-yl sulfate] | < 10 | (A) (1 μg/mL) | 40 to 60 | 100 to 200 | 20 to 100 | – |
| O=C1N2C[C@@H](CC[C@H]2SC(F)(F)F)N1OS(=O)(=O)[O-].[Na+] [Example 7, Sodium (2R, 5R)-7-oxo-2-[(trifluoromethyl)sulfanyl]-1,6-diazabicyclo[3.2.1]octan-6-yl sulphate] | > 10 | (A) (1 μg/mL) | 40 to 60 | 200 to 300 | – | – |
| O=C1N2C[C@@H](CC[C@H]2Cl)N1OS(=O)(=O)[O-].[Na+] [Example 12, Sodium (2R,5R)-2-chloro-7-oxo-1,6-diazabicyclo[3.2.1]octan-6-yl sulfate] | > 10 | (A) (1 μg/mL) | < 10 | > 300 | – | MIC of meropenem + compound compared with meropenem + avibactam [1]: lower; IC50 (TEM-1): < 3 nM |
| O=C1N2C[C@@H](CC[C@H]2C(F)(F)c2nccs2)N1OS(=O)(=O)[O-].[Na+] [Example 9, Sodium (2S, 5R)-2-[difluoro(1,3-thiazol-2-yl)methyl]-7-oxo-1,6-diazabicyclo[3.2.1]octan-6-yl sulphate] | < 10 | (A) (1 μg/mL) | < 10 | 200 to 300 | 20 to 100 | – |
| O=C1N2C[C@@H](CC[C@H]2COC(F)(F)F)N1OS(=O)(=O)[O-].[Na+] [Example 8, Sodium (2S, 5R)-7-oxo-2-[(trifluoromethoxy)methyl]-1,6-diazabicyclo[3.2.1]octan-6-yl sulphate] | < 10 | (A) (1 μg/mL) | 40 to 60 | 200 to 300 | 100 to 200 | – |
| O=C1N2C[C@@H](CC[C@H]2CCl)N1OS(=O)(=O)[O-].[Na+] [Example 6, Sodium (2S, 5R)-2-(chloromethyl)-7-oxo-1,6-diazabicyclo[3.2.1]octan-6-yl sulphate] | > 10 | (A) (1 μg/mL) | 10 to 40 | 200 to 300 | – | – |
| O=C1N2C[C@@H](CC[C@H]2F)N1OS(=O)(=O)[O-].[Na+] [Example 10, Sodium (2R,5R)-2-fluoro-7-oxo-1,6-diazabicyclo[3.2.1]octan-6-yl sulfate] | > 10 | (A) (1 μg/mL) | 10 to 40 | 200 to 300 | – | MIC (Meropenem + inhibitor at 4 μg/mL) [3]: 0.25 µg/mL; % of the strains susceptible ([4]; FIG. 3, in the presence of 2 μg/mL of each inhibitor, inhibitor in combination with meropenem): around 50%; % of the strains susceptible ([4]; FIG. 3, in the presence of 16 μg/mL of each inhibitor, inhibitor in combination with meropenem): ~100%; MIC90 of meropenem with addition of 4 μg/mL of inhibitor ([4]; FIG. 3, meropenem + 4 μg/mL inhibitor): 8 µg/mL; MIC of meropenem + compound compared with meropenem + avibactam ([5]; NTBC189): lower; MIC of meropenem + compound compared with meropenem + avibactam ([6]; NTBC093): similar; MIC50 of meropenem with addition of 4 μg/mL of inhibitor [7]: 0.12 µg/mL; MIC90 of meropenem with addition of 4 μg/mL of inhibitor [7]: 0.5 µg/mL; bacterial burden (colony forming units per gram thigh tissue) [8]: dose response; MIC of meropenem + compound compared with meropenem + avibactam ([9]; NTBC096.1): lower; bacterial burden (colony forming units per gram thigh tissue) [10]: dose response; MIC of meropenem + compound compared with meropenem + avibactam [1]: lower; MIC50 of meropenem with addition of 4 μg/mL of inhibitor [11]: 0.12 µg/mL; MIC (Meropenem + inhibitor at 4 μg/mL) ([12]; AC00445): 4 µg/mL; MIC (Meropenem + inhibitor at 4 μg/mL) ([13]; NR-48977): 1 µg/mL; IC50 (TEM-1): < 3 nM; bacterial burden (colony forming units per gram thigh tissue) [14]: dose response |
| CC(F)(F)[C@@H]1CC[C@@H]2CN1C(=O)N2OS(=O)(=O)[O-].[Na+] [Example 5, Sodium (2S, 5R)-2-(1,1-difluoroethyl)-7-oxo-1,6-diazabicyclo[3.2.1]octan-6-yl sulphate] | > 10 | (A) (1 μg/mL) | 40 to 60 | 20 to 100 | 5 to 20 | – |
| NC(=O)[C@@H]1CC[C@@H]2CN1C(=O)N2OS(=O)(=O)O [Avibactam, avibactam, reference compound] | – | A (1 μg/mL) | – | – | – | IC50 (CTX-M15; nitrocefin 50 μM, band, read-out: CTX-M15 mean IC50 (banded)): < 5 nM; IC50 (AmpC [15]): < 10 nM; MIC mero + 4 μg/mL inhibitor (banded) ([5]; NTBC189, MIC of meropenem with 4 μg/mL of the labelled inhibitor, band): A (1 μg/mL); MIC mero + 4 μg/mL inhibitor (banded) ([6]; NTBC093, MIC of meropenem with 4 μg/mL of the labelled inhibitor, band): A (1 μg/mL); MIC mero + 4 μg/mL inhibitor ([6]; NTBC093, MIC of meropenem with 4 μg/mL of the labelled inhibitor, value): 0.03 µg/mL; MIC mero + 4 μg/mL inhibitor (banded) ([9]; NTBC096.1, MIC of meropenem with 4 μg/mL of the labelled inhibitor, band): B (MIC=1 or 2 μg/mL) |
| O=C1N2C[C@@H](CC[C@H]2C(F)(F)F)N1OS(=O)(=O)O [Example 1, Sodium (2S, 5R)-7-oxo-2-(trifluoromethyl)-1,6-diazabicyclo[3.2.1]octan-6-yl sulfate] | < 10 | (A) (1 μg/mL) | – | < 20 | 5 to 20 | MIC [5, 17]: 2 µg/mL; MIC ([6]; Enterobacter cloacae, read-out: MIC mero + 4 μg/mL inhibitor): 0.06 µg/mL; MIC [9, 17]: 4 µg/mL; MIC of meropenem + compound compared with meropenem + avibactam [1]: lower |
| C[C@@H](O)[C@H]1C(=O)N2C(C(=O)O)=C(S[C@@H]3CN[C@H](C(=O)N(C)C)C3)[C@H](C)[C@H]12 [meropenem, reference compound] | – | – | – | – | – | fraction of strains susceptible at an MIC of 1 μg/mL [16]: 0%; % of the strains susceptible ([4]; FIG. 3, in the presence of 2 μg/mL of each inhibitor, antibiotic alone or clinical combination): 0%; MIC ([12]; Acinetobacter baumannii, read-out: MIC (meropenem alone)): 64 µg/mL (≈ 167 µM); MIC ([13]; Klebsiella pneumoniae, read-out: MIC (meropenem alone)): 64 µg/mL (≈ 167 µM) |
